Experimental findings from patent publication US11384060B2, “Amide compounds and use thereof” (ALPHALA CO., LTD., priority 2017, dated 2022) are described below.

Where two headings read alike, the source gives them in different places.

In assay [1] the target is T1, glucagon receptor (GCGR) overexpressed CHO-K1 cells or human primary hepatocytes (Homo sapiens, UniProt P47871).
T1 construct: expressed in transfected cells; host or cells: GCGR overexpressed CHO-K1 cells or human primary hepatocytes (endogenous receptor)
T1 sequence (P47871 26-477): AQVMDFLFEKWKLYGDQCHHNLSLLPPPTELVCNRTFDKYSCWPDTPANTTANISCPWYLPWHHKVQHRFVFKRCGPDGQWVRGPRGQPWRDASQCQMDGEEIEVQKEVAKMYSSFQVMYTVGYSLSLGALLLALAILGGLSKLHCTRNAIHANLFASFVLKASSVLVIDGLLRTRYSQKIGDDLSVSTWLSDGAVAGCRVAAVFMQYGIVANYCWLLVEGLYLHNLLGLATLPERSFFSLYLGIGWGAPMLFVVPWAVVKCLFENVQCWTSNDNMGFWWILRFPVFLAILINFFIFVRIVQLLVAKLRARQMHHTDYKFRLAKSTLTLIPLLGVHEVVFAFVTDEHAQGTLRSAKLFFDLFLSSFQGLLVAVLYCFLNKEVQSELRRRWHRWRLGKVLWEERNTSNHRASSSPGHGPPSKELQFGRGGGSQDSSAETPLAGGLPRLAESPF
Nature of the assay: Glucagon cAMP inhibition assay (Cisbio cAMP Dynamic 2 HTRF). The format is cell-based. In short, it runs like this: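 HTRF read-out of glucagon-induced cAMP, with IC50 from non-linear regression. Cells (GCGR CHO-K1 or human primary hepatocytes) in HBSS/0.1% BSA/800 nM IBMX took compound dilutions for 30 min (final DMSO 1%), then EC50-level glucagon for 30 min at room temperature, then a 60 min lysis/detection step.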
A general note: In TR-FRET formats the signal depends on donor and acceptor labels being close together.

The next assay deals with T2, glucagon receptor (GCGR) (Homo sapiens, UniProt P47871).
T2 construct: expressed in transfected cells; host or cells: CHO-K1 cells overexpressing GCGR (membrane fractions)
T2 sequence (P47871 26-477): as above
In words: I125-glucagon binding assay (competition, GCGR membrane fractions). In short, it runs like this:
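Competition of 0.0625 nM (final) I^125-glucagon for 30 min at 25° C, after 5 min compound preincubation, using 7.5 μg/well GCGR-overexpressing CHO-K1 membranes in 50 mM Tris pH 7.4, 0.5% BSA. Filtration onto PEI-coated GF/B, micro-beta counting, and non-linear regression gave IC50.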

Setting [2] is: inhibition of glucagon (EC50 concentration) induced cAMP production.
Setting [3] is: competition with I125-glucagon 0.0625 nM, membrane fractions of GCGR overexpressed CHO-K1 cells.

Broadly, the IC50 is the concentration needed to halve the response being measured. Read a high IC50 as a need for much substance.

In the case of `CCOC(=O)CCNC(=O)c1ccc(N[C@H](C(=O)Nc2ccc(-c3cc4ccccc4o3)cc2)[C@@H](C)CC)cc1` [Compound 23-30], in assay [1], the “IC50 cAMP” value stood at 0.0252 µM. In addition, the IC50 on glucagon receptor (GCGR) is 1480 nM.
The like results for `CCCC[C@@H](COc1nnc(-c2ccc(C(C)(C)C)cc2)o1)Nc1ccc(C(=O)NCCC(=O)O)cc1` [Compound 22-18, (S)-3-(4-((1-((5-(4-(tert-butyl)phenyl)-1,3,4-oxadiazol-2-yl)oxy)hexan-2-yl)amino)benzamido)propanoic Acid] were, in that order, above 30 µM and above 30000 nM.
Regarding `O=C(O)CCNC(=O)c1ccc(N[C@@H](Cc2ccccc2)C(=O)Nc2ccc(-c3ccccc3C(F)(F)F)cc2)cc1` [Compound 23-23], the “IC50 cAMP” value in assay [1] is 5.8 µM. Besides, the IC50 on glucagon receptor (GCGR) worked out at 4150 nM.
The like results for `CC(C)COC[C@H](Cc1ccc(-c2ccccc2C(F)(F)F)cc1)Nc1ccc(C(=O)NCCC(=O)O)cc1` [Compound 19-29, (S)-3-(4-((1-isobutoxy-3-(2′-(trifluoromethyl)-[1,1′-biphenyl]-4-yl)propan-2-yl)amino)benzamido)propanoic Acid] were, in that order, 0.871 µM and 2120 nM.
With `CC[C@H](C)[C@@H](COc1ccc(-c2cc3ccccc3o2)cc1)Nc1ccc(C(=O)NCCC(=O)O)cc1` [Compound 1-4, 3-(4-(((2S,3S)-1-(4-(benzofuran-2-yl)phenoxy)-3-methylpentan-2-yl)amino)benzamido)propanoic Acid], in assay [1] (setting [2]), the “IC50 cAMP” value was 0.528 µM. Moreover, at glucagon receptor (GCGR) (setting [3]), the IC50 was 184 nM.
`O=C(O)CCNC(=O)c1ccc(N[C@H](COc2ccc(-c3cc4ccccc4o3)cn2)c2ccccc2)cc1` [Compound 15-5, (S)-3-(4-((2-((5-(benzofuran-2-yl)pyridin-2-yl)oxy)-1-phenylethyl)amino)benzamido)propanoic Acid]: the “IC50 cAMP” value in assay [1] came to 2.067 µM. In addition, the IC50 on glucagon receptor (GCGR) worked out at 706 nM.
In the same order, the values of `CC[C@H](C)[C@@H](COc1nnc(-c2ccc(Cl)cc2Cl)o1)Nc1ccc(C(=O)NCCC(=O)O)cc1` [Compound 22-11, 3-(4-(((2S,3S)-1-((5-(2,4-dichlorophenyl)-1,3,4-oxadiazol-2-yl)oxy)-3-methylpentan-2-yl)amino)benzamido)propanoic Acid] are above 30 µM and above 30000 nM.
Turning to `CC(C)[C@@H](COc1ccc(-c2ccc(Cl)cc2Cl)cn1)Nc1ccc(C(=O)NCCC(=O)O)cn1` [Compound 16-1, (S)-3-(6-((1-((5-(2,4-dichlorophenyl)pyridin-2-yl)oxy)-3-methylbutan-2-yl)amino)nicotinamido)propanoic Acid], the “IC50 cAMP” value in assay [1] (setting [2]) is 0.3572 µM. For the same molecule, the IC50 at glucagon receptor (GCGR) (setting [3]) was found to be 215 nM.
The like results for `CC[C@H](C)[C@@H](COc1cc(Cl)c(-c2cc3ccccc3o2)cc1Cl)Nc1ccc(C(=O)NCCC(=O)O)cc1` [Compound 3-19, 3-(4-(((2S,3S)-1-(4-(benzofuran-2-yl)-2,5-dichlorophenoxy)-3-methylpentan-2-yl)amino)benzamido)propanoic Acid] were, in that order, 0.13 µM and 64 nM.
The like results for `Cc1cc(OC[C@@H](Cc2ccccc2)Nc2ccc(C(=O)NCCC(=O)O)cc2)cc(C)c1-c1ccc(C(F)(F)F)cc1` [Compound 2-1, (R)-3-(4-((1-((2,6-dimethyl-4′-(trifluoromethyl)-[1,1′-biphenyl]-4-yl)oxy)-3-phenylpropan-2-yl)amino)benzamido)propanoic Acid] were, in that order, 0.3229 µM and 266 nM.
`CC(C)[C@@H](COc1ccc(-c2cc3ccccc3o2)cn1)Nc1ccc(C(=O)NCCC(=O)O)cn1` [Compound 16-2, (S)-3-(6-((1-((5-(benzofuran-2-yl)pyridin-2-yl)oxy)-3-methylbutan-2-yl)amino)nicotinamido)propanoic Acid]: the “IC50 cAMP” value in assay [1] (setting [2]) was determined as 0.2393 µM. For the same molecule, at glucagon receptor (GCGR) (setting [3]), the IC50 came to 528 nM.
On to `CCOC(=O)CCNC(=O)c1ccc(N[C@H](COc2ccc(-c3nc4ccccc4s3)cc2)C(C)C)cc1` [Compound 1-30], for which, in assay [1] (setting [2]), the “IC50 cAMP” value was 1.214 µM. Moreover, the IC50 on glucagon receptor (GCGR) (setting [3]) was found to be 7630 nM.
In the case of `CC[C@H](C)[C@@H](COc1ccc(-c2ccc(C(F)(F)F)cc2F)c(OC)c1)Nc1ccc(C(=O)NCCC(=O)O)cc1` [Compound 13-4], the “IC50 cAMP” value in assay [1] (setting [2]) was determined as 0.131 µM. The same molecule returned an IC50 on glucagon receptor (GCGR) (setting [3]) of 68 nM.
On to `CCCC[C@@H](COc1ccc(-c2ccc(C(F)(F)F)cc2)c(OC)c1)Nc1ccc(C(=O)NCCC(=O)O)cc1` [Compound 13-11, (S)-3-(4-((1-((2-methoxy-4′-(trifluoromethyl)-[, 1′-biphenyl]-4-yl)oxy)hexan-2-yl)amino)benzamido)propanoic Acid], for which the “IC50 cAMP” value in assay [1] (setting [2]) is 0.118 µM. The same molecule returned an IC50 on glucagon receptor (GCGR) (setting [3]) of 47 nM.
The like results for `CC[C@H](C)[C@@H](COc1cc(Cl)c(-c2ccc(C(F)(F)F)cc2Cl)cc1Cl)Nc1ccc(C(=O)NCCC(=O)O)cc1` [Compound 3-20, 3-(4-(((2S,3S)-3-methyl-1-((2,2′,5-trichloro-4′-(trifluoromethyl)-[1,1′-biphenyl]-4-yl)oxy)pentan-2-yl)amino)benzamido)propanoic Acid] were, in that order, 0.044 µM and 73 nM.
The like results for `CC(C)[C@@H](COc1ccc(-c2cc3ccccc3o2)c(F)c1)Nc1ccc(C(=O)NCCC(=O)O)cc1` [Compound 8-3, (S)-3-(4-((1-(4-(benzofuran-2-yl)-3-fluorophenoxy)-3-methylbutan-2-yl)amino)benzamido)propanoic Acid] were, in that order, 0.0844 µM and 83 nM.
Consider `O=C(O)CCNC(=O)c1ccc(NC(Cc2ccccc2)C(=O)Nc2ccc(C(F)(F)F)cc2)cc1` (stereo in doubt) [Compound 24-4, (S)-3-(4-((1-oxo-3-phenyl-1-((4-(trifluoromethyl)phenyl)amino)propan-2-yl)amino)benzamido)propanoic Acid], for which the “IC50 cAMP” value in assay [1] (uM) was above 10 µM. At glucagon receptor (GCGR), this molecule gave an IC50 of 6020 nM.
The like results for `CC[C@H](C)[C@H](Nc1ccc(C(=O)NCCC(=O)O)cc1)C(=O)Nc1ccc2cc(OC)ccc2c1` [Compound 24-8, 3-(4-(((2S,3S)-1-((6-methoxynaphthalen-2-yl)amino)-3-methyl-1-oxopentan-2-yl)amino)benzamido)propanoic Acid] were, in that order, above 10 µM and 1030 nM.
Take `CC[C@H](C)[C@@H](COc1ccc(-c2ccc(C(F)(F)F)cc2Cl)cn1)Nc1ccc(C(=O)NCCC(=O)O)cc1` [Compound 15-13, 3-(4-(((2S,3S)-1-((5-(2-chloro-4-(trifluoromethyl)phenyl)pyridin-2-yl)oxy)-3-methylpentan-2-yl)amino)benzamido)propanoic Acid]: the “IC50 cAMP” value in assay [1] turned out to be 0.123 µM. Moreover, the IC50 on glucagon receptor (GCGR) was 98 nM.
In the case of `CC(C)C[C@@H](COc1cc(F)c(-c2cc3ccccc3o2)c(F)c1)Nc1ccc(C(=O)NCCC(=O)O)cc1` [Compound 7-10, (S)-3-(4-((1-(4-(benzofuran-2-yl)-3,5-difluorophenoxy)-4-methylpentan-2-yl)amino)benzamido)propanoic Acid], in assay [1] (setting [2]), the “IC50 cAMP” value was determined as 0.7309 µM. Also, the IC50 on glucagon receptor (GCGR) (setting [3]) stood at 145 nM.
In the same order, the values of `CC(C)[C@@H](COc1ccc(-c2ccc(C(F)(F)F)cc2F)nn1)Nc1ccc(C(=O)NCCC(=O)O)cc1` [Compound 17-9] are 11.597 µM and 2600 nM.
In the same order, the values of `CCCC[C@@H](COc1ccc(-c2ccc(C(F)(F)F)cc2)cc1)Nc1ccc(C(=O)NCc2nnn[nH]2)cc1` [Compound 1-16, (S)—N-((1H-tetrazol-5-yl)methyl)-4-((1-((4′-(trifluoromethyl)-[1,1′-biphenyl]-4-yl)oxy)hexan-2-yl)amino)benzamide] are 0.9488 µM and 52 nM.
The like results for `CCCC[C@@H](COc1ccc(-c2ccc(C(F)(F)F)cc2)c(Cl)c1)Nc1ccc(C(=O)NCc2nnn[nH]2)cc1` [Compound 3-17, (S)—N-((1H-tetrazol-5-yl)methyl)-4-((1-((2-chloro-4′-(trifluoromethyl)-[1,1′-biphenyl]-4-yl)oxy)hexan-2-yl)amino)benzamide] were, in that order, 0.105 µM and 111 nM.
Consider `Cc1c(-c2nnc([C@H](Cc3ccc(-c4ccc(C(F)(F)F)cc4)cc3)Nc3ccc(C(=O)NCCS(=O)(=O)O)cc3)o2)oc2ccccc12` [Compound 20-7, (S)-2-(4-((1-(5-(3-methylbenzofuran-2-yl)-1,3,4-oxadiazol-2-yl)-2-(4′-(trifluoromethyl)-[1,1′-biphenyl]-4-yl)ethyl)amino)benzamido)ethane-1-sulfonic Acid], for which the “IC50 cAMP” value in assay [1] is above 30 µM. The molecule also showed an IC50 at glucagon receptor (GCGR) above 30000 nM.
In the case of `CCCC[C@@H](COc1ccc(-c2ccc(C(F)(F)F)cc2)c(F)c1)Nc1ccc(C(=O)NCCC(=O)O)cc1` [Compound 8-18, (S)-3-(4-((1-((2-fluoro-4′-(trifluoromethyl)-[1,1′-biphenyl]-4-yl)oxy)hexan-2-yl)amino)benzamido)propanoic Acid], in assay [1] (setting [2]), the “IC50 cAMP” value came out at 0.1535 µM. The molecule further displayed an IC50 on glucagon receptor (GCGR) (setting [3]) of 158 nM.
As to `CC(C)(C)c1ccc(-c2ccc(C[C@@H](Nc3ccc(C(=O)NCCC(=O)O)cc3)C(=O)Nc3ccc(OC(F)(F)F)cc3)cc2)cc1` [Compound 24-26, (R)-3-(4-((3-(4′-(tat-butyl)-[1,1′-biphenyl]-4-yl)-1-oxo-1-((4-(trifluoromethoxy)phenyl)amino)propan-2-yl)amino)benzamido)propanoic Acid], the “IC50 cAMP” value in assay [1] was 0.8313 µM. This molecule also had an IC50 on glucagon receptor (GCGR) of 45.7 nM.
